Measurements from patent US8653057B1, “Prophylactic perioperative testosterone supplementation for protection of and recovery of function” (The Regents of the University of California, priority 2010, dated 2014).

Key:
[1] = cited from earlier work
[2] = testosterone supplementation of low-testosterone patients around radical prostatectomy (anecdotal results); format: in vivo, men
Text: Therefore men with either low or low normal testosterone levels can be treated with testosterone (or other androgens such as synthetic steroids structurally related to testosterone) to prevent, mitigate or treat erectile dysfunction associated with RARP/RP. A large number of testosterone replacement drugs such as Androgel can easily be given to appropriate patients prior to or even following surgery. The amount of testosterone administered is sufficient to raise the free testosterone level into the high free testosterone range as defined above (generally greater than about 9 ng/dl). Where other androgens are used, the equivalent effectiveness of each different molecule in terms of testosterone is generally known. Sufficient androgen is given so that the effectiveness of the circulating level of androgen plus testosterone falls within the high free testosterone range. As will be clear to those of ordinary skill in the art, the testosterone or other androgen is administered at the usual amount and frequency. Circulating testosterone levels are measured at appropriate intervals (i.e., weekly or monthly) and the dosage adjusted if necessary.
We believe that preoperative supplementation will produce even more dramatic improvements. […]

## C[C@]12CC[C@H]3[C@@H](CCC4=CC(=O)CC[C@@]43C)[C@@H]1CC[C@@H]2O [testosterone]
[1]
  PSA values after testosterone replacement therapy: have not been shown to increase significantly
[1]; testosterone replacement after radical prostatectomy, small studies (7, 10 and 57 men), 13 and 19 months
  prostate specific antigen (PSA): without increasing prostate specific antigen (PSA)
[2]; supplementing low testosterone levels, anecdotal results
  recovery (of potency/sexual function) after prostate surgery: more rapid and more complete recovery
[2]; testosterone supplementation, limited data
  recurrence of the cancer: does not lead to recurrence of the cancer
